#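 Values below derive from 48-hour exposures of cells grown in 96-well plates, with endpoints linearly interpolated between the two concentrations bracketing the appropriate inhibition level. The concentration for full growth arrest is given as TGI.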
# Tests used:
# Assay in all cases: growth of human tumour cells (NCI), 48 h
# SF-268 CNS = tested on: SF-268 CNS
# SN12C renal = tested on: SN12C renal
# M14 melanoma = tested on: M14 melanoma
# MOLT-4 leukemia = tested on: MOLT-4 leukemia
# EKVX NSCLC = tested on: EKVX NSCLC
# HCT-116 colon = tested on: HCT-116 colon
# SW-620 colon = tested on: SW-620 colon
# IGROV1 ovarian = tested on: IGROV1 ovarian
# RXF 393 renal = tested on: RXF 393 renal
# SNB-75 CNS = tested on: SNB-75 CNS
# HOP-92 NSCLC = tested on: HOP-92 NSCLC
# 786-0 renal = tested on: 786-0 renal
# ACHN renal = tested on: ACHN renal
# RPMI-8226 leukemia = tested on: RPMI-8226 leukemia
# T-47D breast = tested on: T-47D breast
# OVCAR-5 ovarian = tested on: OVCAR-5 ovarian
# SNB-19 CNS = tested on: SNB-19 CNS
# TK-10 renal = tested on: TK-10 renal
# MDA-N = tested on: MDA-N
# SK-MEL-2 melanoma = tested on: SK-MEL-2 melanoma
# NCI-H460 lung = tested on: NCI-H460 lung
# KM12 colon = tested on: KM12 colon
# HT29 colon = tested on: HT29 colon
# PC-3 prostate = tested on: PC-3 prostate
# SK-MEL-5 melanoma = tested on: SK-MEL-5 melanoma
# UACC-257 melanoma = tested on: UACC-257 melanoma
# COLO 205 colon = tested on: COLO 205 colon
# NCI-H522 lung = tested on: NCI-H522 lung
# SR leukemia = tested on: SR leukemia
# HCT-15 colon = tested on: HCT-15 colon
# HCC-2998 colon = tested on: HCC-2998 colon
# SK-MEL-28 melanoma = tested on: SK-MEL-28 melanoma
# A498 renal = tested on: A498 renal
# CAKI-1 renal = tested on: CAKI-1 renal
# OVCAR-4 ovarian = tested on: OVCAR-4 ovarian
# U251 CNS = tested on: U251 CNS
# SK-OV-3 ovarian = tested on: SK-OV-3 ovarian
# HS 578T breast = tested on: HS 578T breast
# MDA-MB-435 = tested on: MDA-MB-435
# MDA-MB-231 breast = tested on: MDA-MB-231 breast
# OVCAR-3 ovarian = tested on: OVCAR-3 ovarian
# K-562 leukemia = tested on: K-562 leukemia
# MCF7 breast = tested on: MCF7 breast
# HOP-62 NSCLC = tested on: HOP-62 NSCLC
# MALME-3M melanoma = tested on: MALME-3M melanoma
# DU-145 prostate = tested on: DU-145 prostate
# NCI-H226 lung = tested on: NCI-H226 lung
# UACC-62 melanoma = tested on: UACC-62 melanoma
# CCRF-CEM leukemia = tested on: CCRF-CEM leukemia
# NCI/ADR-RES ovarian = tested on: NCI/ADR-RES ovarian
# NCI-H23 lung = tested on: NCI-H23 lung
# OVCAR-8 ovarian = tested on: OVCAR-8 ovarian
# SF-295 CNS = tested on: SF-295 CNS
# BT-549 breast = tested on: BT-549 breast
# LOX IMVI melanoma = tested on: LOX IMVI melanoma
# SF-539 CNS = tested on: SF-539 CNS
# A549 NSCLC = tested on: A549 NSCLC
# UO-31 renal = tested on: UO-31 renal
# HL-60(TB) leukemia = tested on: HL-60(TB) leukemia
smiles,measurement,setting,value
COc1ccccc1/C=C/c1nc2ccccc2o1,TGI,SF-268 CNS,> 10 µM
same,TGI,SN12C renal,> 10 µM
same,TGI,M14 melanoma,> 10 µM
same,TGI,MOLT-4 leukemia,> 10 µM
same,TGI,EKVX NSCLC,> 10 µM
same,TGI,HCT-116 colon,> 10 µM
same,TGI,SW-620 colon,> 10 µM
same,TGI,IGROV1 ovarian,> 10 µM
same,TGI,RXF 393 renal,> 10 µM
same,TGI,SNB-75 CNS,> 10 µM
same,TGI,HOP-92 NSCLC,> 10 µM
same,TGI,786-0 renal,> 10 µM
same,TGI,ACHN renal,> 10 µM
same,TGI,RPMI-8226 leukemia,> 10 µM
same,TGI,T-47D breast,> 10 µM
same,TGI,OVCAR-5 ovarian,> 10 µM
same,TGI,SNB-19 CNS,> 10 µM
same,TGI,TK-10 renal,> 10 µM
same,TGI,MDA-N,> 10 µM
same,TGI,SK-MEL-2 melanoma,> 10 µM
same,TGI,NCI-H460 lung,> 10 µM
same,TGI,KM12 colon,> 10 µM
same,TGI,HT29 colon,> 10 µM
same,TGI,PC-3 prostate,> 10 µM
same,TGI,SK-MEL-5 melanoma,> 10 µM
same,TGI,UACC-257 melanoma,> 10 µM
same,TGI,COLO 205 colon,> 10 µM
same,TGI,NCI-H522 lung,> 10 µM
same,TGI,SR leukemia,> 10 µM
same,TGI,HCT-15 colon,> 10 µM
same,TGI,HCC-2998 colon,> 10 µM
same,TGI,SK-MEL-28 melanoma,> 10 µM
same,TGI,A498 renal,> 10 µM
same,TGI,CAKI-1 renal,> 10 µM
same,TGI,OVCAR-4 ovarian,> 10 µM
same,TGI,U251 CNS,> 10 µM
same,TGI,SK-OV-3 ovarian,> 10 µM
same,TGI,HS 578T breast,> 10 µM
same,TGI,MDA-MB-435,> 10 µM
same,TGI,MDA-MB-231 breast,> 10 µM
same,TGI,OVCAR-3 ovarian,> 10 µM
same,TGI,K-562 leukemia,> 10 µM
same,TGI,MCF7 breast,> 10 µM
same,TGI,HOP-62 NSCLC,> 10 µM
same,TGI,MALME-3M melanoma,> 10 µM
same,TGI,DU-145 prostate,> 10 µM
same,TGI,NCI-H226 lung,> 10 µM
same,TGI,UACC-62 melanoma,> 10 µM
same,TGI,CCRF-CEM leukemia,> 10 µM
same,TGI,NCI/ADR-RES ovarian,> 10 µM
same,TGI,NCI-H23 lung,> 10 µM
same,TGI,OVCAR-8 ovarian,> 10 µM
same,TGI,SF-295 CNS,> 10 µM
same,TGI,BT-549 breast,> 10 µM
same,TGI,LOX IMVI melanoma,> 10 µM
same,TGI,SF-539 CNS,> 10 µM
same,TGI,A549 NSCLC,> 10 µM
Cc1ccc(NC(=O)/C(=N\NC(N)=O)c2c(O)c3ccccc3[nH]c2=O)cc1,TGI,SF-268 CNS,> 100 µM
same,TGI,SN12C renal,> 100 µM
same,TGI,M14 melanoma,> 100 µM
same,TGI,MOLT-4 leukemia,> 100 µM
same,TGI,HCT-116 colon,> 100 µM
same,TGI,SW-620 colon,> 100 µM
same,TGI,UO-31 renal,> 100 µM
same,TGI,RXF 393 renal,> 100 µM
same,TGI,SNB-75 CNS,> 100 µM
same,TGI,HOP-92 NSCLC,> 100 µM
same,TGI,786-0 renal,> 100 µM
same,TGI,ACHN renal,> 100 µM
same,TGI,RPMI-8226 leukemia,> 100 µM
same,TGI,T-47D breast,> 100 µM
same,TGI,OVCAR-5 ovarian,> 100 µM
same,TGI,SNB-19 CNS,> 100 µM
same,TGI,MDA-N,> 100 µM
same,TGI,SK-MEL-2 melanoma,> 100 µM
same,TGI,NCI-H460 lung,> 100 µM
same,TGI,KM12 colon,> 100 µM
same,TGI,HT29 colon,> 100 µM
same,TGI,PC-3 prostate,> 100 µM
same,TGI,SK-MEL-5 melanoma,> 100 µM
same,TGI,UACC-257 melanoma,> 100 µM
same,TGI,COLO 205 colon,> 100 µM
same,TGI,SR leukemia,> 100 µM
same,TGI,HCT-15 colon,> 100 µM
same,TGI,HCC-2998 colon,> 100 µM
same,TGI,SK-MEL-28 melanoma,> 100 µM
same,TGI,A498 renal,> 100 µM
same,TGI,CAKI-1 renal,> 100 µM
same,TGI,OVCAR-4 ovarian,> 100 µM
same,TGI,U251 CNS,> 100 µM
same,TGI,SK-OV-3 ovarian,> 100 µM
same,TGI,HS 578T breast,> 100 µM
same,TGI,MDA-MB-435,> 100 µM
same,TGI,MDA-MB-231 breast,> 100 µM
same,TGI,OVCAR-3 ovarian,> 100 µM
same,TGI,K-562 leukemia,> 100 µM
same,TGI,MCF7 breast,> 100 µM
same,TGI,DU-145 prostate,> 100 µM
same,TGI,NCI-H226 lung,> 100 µM
same,TGI,UACC-62 melanoma,> 100 µM
same,TGI,CCRF-CEM leukemia,> 100 µM
same,TGI,NCI/ADR-RES ovarian,> 100 µM
same,TGI,NCI-H23 lung,> 100 µM
same,TGI,OVCAR-8 ovarian,> 100 µM
same,TGI,SF-295 CNS,> 100 µM
same,TGI,BT-549 breast,> 100 µM
same,TGI,LOX IMVI melanoma,> 100 µM
same,TGI,SF-539 CNS,> 100 µM
same,TGI,HL-60(TB) leukemia,> 100 µM
same,TGI,A549 NSCLC,> 100 µM

# From PubChem BioAssay (NCI)
